Measured values reported in ChEMBL document CHEMBL2034942, “Trigoxyphins H and I: two new daphnane diterpenoids from Trigonostemon xyphophylloides” (Bioorg Med Chem Lett, 2012).

Columns and labels:
[1] = Cytotoxicity against human SPC-A1 cells after 48 hrs by MTT assay; type: functional, cell-based; conditions: SPCA1, 48 h
Bel-7402 = assay: Cytotoxicity against human Bel7402 cells after 48 hrs by MTT assay; type: functional, cell-based; conditions: Bel-7402, 48 h

| SMILES | IC50 [1] [µM] | IC50 (Bel-7402) [µM] |
| --- | --- | --- |
| C=C(C)[C@@]12OC3(c4ccccc4)O[C@@H]1[C@@H]1[C@@H]4O[C@]4(C)[C@@H](O)[C@@H]4C(=O)C(C)=C[C@@H]4[C@@]1(O3)[C@H](C)[C@@H]2OC(=O)c1ccccc1 (relative stereo) | 37.3 | 16.1 |
| C=C(C)[C@@]12OC3(c4ccccc4)O[C@@H]1[C@@H]1[C@H](OC(C)=O)[C@@](C)(OC(=O)c4ccccc4)[C@@H](OC(C)=O)[C@@]4(O)[C@@H](C[C@H](C)[C@@H]4OC(C)=O)[C@@]1(O3)[C@H](C)[C@@H]2OC(C)=O [TRIGOXYPHIN I] | 11.1 | 8.73 |
